The values that follow are results of earlier work, collected in patent US20020131987A1, “METHOD FOR ENHANCING STABLE CELLULAR CREATINE CONCENTRATION” (priority 1997, published 2002).

Assay in data set [1]: not given
This is another data set of the same source.

Assay in data set [2]: not given
The source holds these as a separate data set.

Assay in data set [3]: not given
The source holds these as a separate data set.

Assay in data set [4]: not given
The source holds these as a separate data set.

In the case of `CN(CC(=O)O)C(=N)N.O` [creatine monohydrate], the “formation of creatinine in aqueous solution” value (dissolved in an aqueous solution) is “creatinine is formed”. The “volume of alcohol in which one gram dissolves” value in data set [1] (alcohol) is “about 9 liters”. The “volume of water in which one gram dissolves” value in data set [1] (water) was 75 mL. Moreover, in data set [2], the reaction to litmus result is “neutral”.

As to `CN(CC(=O)O)C(=N)N` [creatine], under “acid solution”, the “formation of creatinine in acid solution” value is “complete”. For the same compound, where the note is “acidic aqueous solution”, the “time for conversion of creatine to creatinine” value is recorded as “a number of hours”. Also, the “creatine lost from the cell” value in data set [3] (70 kg male) is “approximately 2 grams per day”. In addition, the “loss of creatine from skeletal muscle” value in data set [3] (human skeletal muscle) was “about 3 % per day”. In data set [4] (after oral administration, no appreciable increase in urinary urea or ammonia), the “decomposition in the alimentary tract” value is listed as “not decomposed”. For the same compound, in data set [4] (oral administration), the “absorption from the alimentary tract” value is listed as “completely absorbed”.
